We go through four molecules from patent US9956267B2, “Method of treating skeletal dysplasias using vessel dilator” (University of South Florida, priority 2010, dated 2018).

Where “and” joins values, the source holds several entries; their conditions need not be identical. Equal values may be shown once. Positions of bridges follow the written chain, without caps; N, C: chain ends. No end group written: not given here.

Series [1] has as its system human osteoblast cells (ATCC number CRL-11372). The experiment in a line: Cell Titer 96 Aqueous One Solution (MTS) cell proliferation assay of human osteoblasts. It counts as cell-based. The settings on record: for enhancement of human osteoblast proliferation compared with controls: absorbance at 490 nm at day 7. As to the method:
A cell line (ATCC number CRL-11372) of human osteoblast cells was purchased from the American Type Culture […] (ATCC, Manassas, Va.). Propagation of the human osteoblast cells was in a 1:1 mixture of Ham's F12 Medium and Dulbecco's Modified Eagles Medium (DMEM) with 2.5 mM L-glutamine without phenol red. Base medium was supplemented with 0.3 mg/mL of Geneticin (G418) antibiotic and 10% fetal bovine serum (Harris S A, et al. 1995 Developmental and characterization of a conditionally immortalized human fetal osteoblastic cell line. J Bone Miner Res 10:178-186). Cells were incubated at a temperature of 34° C. in 5% CO2 at which they have rapid cell division, doubling every 36 hours (Harris S A, et al. 1995 Developmental and characterization of a conditionally immortalized human fetal osteoblastic cell line. J Bone Miner Res 10:178-186). […] Cells were dispensed into new flasks with subculturing every 6-8 days. The medium was changed every 3 days.
After the osteoblast cells were subcultured for 24 h, ˜5000 cells in 200 μL of the above media were then seeded (day 1) into 96-well plates (Nuclon, Roskilde, Denmark). After overnight incubation at 34° C. in 5% CO2, the media was removed (day 2), and 50 μL of fresh media was added to control wells, blank wells (with no cells inside), and 50 μL of media with 10 picomolar (pM), 100 pM, 1 nanomolar (nM), or 10 nM of CNP or vessel dilator. At day 5, in these experiments, 50 μL of fresh media was added to the controls, blank wells, and 50 μL of media with 1 nM, 10 nM, 10 pM, and 100 pM of the respective natriuretic hormones for a total volume of 100 μL of media in each well. At day 7, 20 μL of Cell Titer 96® Aqueous One Solution (Promega Corporation, Madison, Wis.) was added to each well containing 1004 of medium and allowed to incubate for 4 h in 5% CO2 atmosphere before recording absorbance at 490 nm with a 96-well plate reader (Cory A H, et al. 1991 Use of aqueous soluble tetrazolium/formazan assay for growth assays in culture. Cancer Commun 3:207-212). There were 15 observations of vessel dilator at each concentration and 16 observations of CNP at each concentration. The peptide hormones used in this investigation were from Phoenix Pharmaceuticals, Inc., Burlingame, Calif.
Cell proliferation of human osteoblasts was examined with the Cell Titer 96 Aqueous One Solution cell proliferation assay (Promega Corp.). This colorimetric method determines the viable cells' proliferation by recording the absorption at 490 nm with a 96-well plate reader (Cory A H, et al. 1991 Use of aqueous soluble tetrazolium/formazan assay for growth assays in culture. Cancer Commun 3:207-212) after incubating the respective cells at 37° C. for 4 h in a 5% CO2 atmosphere.
Approximately 5000 human osteoblast cells were in each well. The proliferation assay detects the number of viable cells in proliferation using a tetrazolium compound (3-[4,5-dimethylthiazol-2-yl]-5-[3-carboxymethoxyphenyl]-2-[4-sulfophenyl]-2H-tetrazolium, inner salt; MTS) and an electron coupling reagent [phenazine ethosulfate (PES)]. PES has enhanced chemical stability, which allows it to be combined with MTS to form a stable solution (Cory A H, et al. 1991 Use of aqueous soluble tetrazolium/formazan assay for growth assays in culture. Cancer Commun 3:207-212). The MTS tetrazolium compound (Owen's reagent) is bioreduced by living cells into a colored formazan product that is measurable at […] in a spectrophotometer, thereby eliminating any nonviable (i.e. dead) cells that would not be proliferating (Cory A H, et al. 1991 Use of aqueous soluble tetrazolium/formazan assay for growth assays in culture. Cancer Commun 3:207-212). This method measure only viable cells' proliferation as dead cells are unable to reduce the MTS tetrazolium compound to a colored formazan product.
All data are expressed as mean±SEM. Statistical significance was determined by the Mann-Whitney test (also called Wilcoxon rank-sum test) for different sample sizes. […]

For series [2] the following is noted: in vivo; cited from earlier work.
Series [3] in a line: duration of biologic effects of natriuretic peptides. The format is in vivo, human. The settings on record: versus CNP. The method, then:
(§1) CNP and ANP are ring-structured natriuretic peptides with very short half-lives of <3 min in the circulation (Kalra P R, et al. 2001 The role of C-natriuretic peptide in cardiovascular medicine. Eur Heart J 22:997-1007, Teixeira C C, et al. 2008 Nitric oxide, C-type natriuretic peptide and cGMP as regulators of endochondral ossification. Dev Biol 319:171-178; Nakao K, et al. 1986 The pharmacokinetics of α-human natriuretic polypeptide in healthy subjects. Eur J Clin Pharmacol 31:101-103; Yandle T G, et al. 1986 Metabolic clearance rate and plasma half life of alpha-human atrial natriuretic peptide in man. Life Sci 38:1827-1833). Their biologic effects last for <30 min. […] J Pharmacol Exp Ther 282:603-608) and its biologic effects last >6 h (Vesely D L, et al. 1994 Three peptides from the atrial natriuretic factor prohormone amino terminus lower blood pressure and produce diuresis, natriuresis, and/or kaliuresis in humans. Circulation 90:1129-1140).
(§2) The gene for CNP is expressed in bone (Mericq V, et al. 2000 Regulation of fetal rat bone growth by C-type natriuretic peptide and cGMP. Pediatr Res 47:189-193) to allow it to be an autocrine/paracrine regulator of bone. […] Life Sci 38:1827-1833; Ackerman B H, et al. 1997 Disposition of vessel dilator and long-acting natriuretic peptide in healthy humans after a one-hour infusion. […]

Series [4] has as its system MEK 1/2 kinases. Particulars: proliferating prostate cancer cells; cited from earlier work.
The conditions of series [5]: in vivo; cited from earlier work. The source holds these as a separate data set.
The test system of series [6] is ERK 1/2 kinases. The settings on record: cited from earlier work.
Series [7] can be described thus: circulatory half-life of natriuretic peptides. It counts as in vivo, human. The settings on record: vessel dilator versus CNP. As to the method:
as §1, §2

Series [8] relates to cyclic GMP (cGMP) in chondrocytes. The settings on record: CNP versus ANP; cited from earlier work.
In series [9] the test system is ERK 1/2 kinases. Particulars: ATDC5 cells, mouse chondrogenic cell line; cited from earlier work.

With “Vessel dilator: linear natriuretic peptide synthesized by the ANP gene; cardiac hormone, molecular weight 3878.31 (EVVPPQVLSEPNEEAGAALSPLPEVPPWTGEVSPAQR; Vessel dilator; UniProt P01160 56-92, looked up)”, the “enhancement of human osteoblast proliferation compared with controls” value was determined as 8% in [1] (10 pM peptide), 7% in series [1] (100 pM peptide), 6% in series [1] (1 nM peptide) and 8% in [1] (10 nM peptide). Also, the “stimulates osteoblasts at lower concentrations than CNP” value in series [1] (compared with CNP) is reported as 1000. The circulatory half-life in series [2] was 1.78 h. Further, the “duration of biologic effect” value in [2] is given as greater than 6 h. Also, the “biologic effects longer than CNP, ANP or BNP” value in series [3] was 12 times and > 12 times. Besides, in series [4], the “inhibition of activation, i.e. phosphorylation, of MEK 1/2 kinases” value is listed as 98%. In addition, in series [5], the “duration of biologic effects” value was greater than 6 h. Further, the “effect on mitogen (epidermal growth factor, EGF) stimulation of ERK 1/2 kinases” value in series [6] (EGF stimulation) is “completely blocks”. For the same molecule, the “inhibition of the phosphorylation of basal activity of ERK 1/2 kinases” value in series [6] (proliferating cells, basal activity) was 96%. For the same molecule, the “circulating half-life longer than CNP” value in [7] is 36 fold.
On to “CNP: 22 amino acid peptide having a 17-amino acid ring, generated from the natriuretic peptide precursor C gene (GLSKGCFGLKLDRIGSMSGLGC; disulfide 6-22 (inferred); UniProt P23582 105-126, looked up) [reference compound]”, for which the “enhancement of human osteoblast proliferation compared with controls” value in series [1] (10 pM peptide) is recorded as “no significant enhancement”; in [1] (10 nM peptide) it was 27%. Besides, the “stimulation of cGMP in chondrocytes relative to ANP” value in series [8] is listed as 10 fold. In addition, in series [9], the “effect on mitogen- (fibroblast growth factor) stimulated ERK 1/2 kinases' phosphorylation” value was “inhibit”.
On to “BNP: natriuretic peptide named with CNP and ANP, biologic effects less than 30 minutes [reference compound]”, for which, in series [5], the “duration of biologic effects” value was “less than 30 min”.
As for `Nc1nc2c(nc(Br)n2[C@@H]2O[C@@H]3COP(=O)(O)O[C@H]3[C@H]2O)c(=O)[nH]1` [8-bromo cGMP], in [9], the “effect on mitogen- (fibroblast growth factor) stimulated ERK 1/2 kinases' phosphorylation” value was “inhibit”.
